{"source": "paper PMC12291762", "about": "(Antioxidants, 2025)", "key": {"[1]": {"test_system": "systemic oxidative stress parameters", "test": "Systemic redox state (plasma, erythrocyte lysate) 24 h after carrageenan", "type": "in vivo, Wistar albino rats", "description": "(§1) Following 24 h of carrageenan-induced paw edema inflammation model and intraperitoneal anesthesia induced by ketamine/xylazine (100/10 mg/kg of BW), the animals were sacrificed, while whole-blood samples and edema-affected paw tissues were isolated. After centrifugation of whole blood, plasma and erythrocyte lysate samples were separated for further examination of the applied compounds’ effects on the systemic redox balance state. Pro-oxidative markers including superoxide anion radical (O2∙^−), hydrogen peroxide (H2O2) nitrites (NO2^−), and index of lipid peroxidation measured as thiobarbituric acid (TBA) reactive substances (TBARS) were determined from plasma samples, while the antioxidant capacity, including superoxide dismutase (SOD) and catalase (CAT) activity, as well as the reduced glutathione (GSH) level were examined in erythrocyte lysate samples [46]. […] Edema-affected paw tissue samples were weighed (100 mg) and homogenized (OmniPrep™ multi-sample homogenizer, Omni International, Kennesaw, GA, USA) in 900 µL phosphate buffer on ice (pH = 7.4), and centrifuged at 12,000 rpm for 20 min. These supernatant samples were used for the determination of the aforementioned pro-oxidative and antioxidative parameters levels. All oxidative stress analyses were performed spectrophotometrically using a Shimadzu UV 1800 spectrophotometer (Kyoto, Japan).\n(§2) Determination of the O2∙^− level was conducted by adding 950 µL of a Nitro Blue Tetrazolium (NBT) mixture with TRIS buffer in 50 µL of sample, measured at the 550 nm wavelength. The level of H2O2 was determined during the oxidation of phenol red by H2O2, which was catalyzed with horseradish peroxidase and measured at the 610 nm wavelength. Indirect measurement of nitrites was performed by the precipitation of samples with 30% sulfo-salicylic acid, followed by vortexing and centrifugation at 3000 rpm for 15 min. The equal volumes of isolated supernatant and Griess’ reagent (containing 1% sulfanilamide in 5% phosphoric acid/0.1% naphthalene ethylenediamine-dihydrochloride) were incubated for 10 min and measured at the 550 nm wavelength. The TBARS concentration was determined by adding 400 µL of sample to 200 µL of TBA in 0.05 M NaOH, followed by 15 min incubation at 100 °C. Measurement was performed at the 530 nm wavelength.\n(§3) The epinephrine method was used for SOD determination. By adding 100 µL of sample, the same volume of epinephrine, and 1000 µL of carbonate buffer, the measurement was performed at the 470 nm wavelength. The determination of CAT activity was based on the preparation of a mixture containing 100 µL of sample, 50 µL of catalase buffer, and 1000 µL of 10 mM H2O2, which was measured at the 230 nm wavelength."}, "[2]": {"test_system": "local oxidative stress parameters", "test": "Local redox state (edema-affected paw tissue homogenate) 24 h after carrageenan", "type": "in vivo, Wistar albino rats", "details": "inflamed paw tissue", "description": "as §1, §2, §3"}, "COX-1": {"biological_target": "T1, COX-1 (Ovis aries, UniProt P05979)", "T1 sequence (P05979 25-600)": "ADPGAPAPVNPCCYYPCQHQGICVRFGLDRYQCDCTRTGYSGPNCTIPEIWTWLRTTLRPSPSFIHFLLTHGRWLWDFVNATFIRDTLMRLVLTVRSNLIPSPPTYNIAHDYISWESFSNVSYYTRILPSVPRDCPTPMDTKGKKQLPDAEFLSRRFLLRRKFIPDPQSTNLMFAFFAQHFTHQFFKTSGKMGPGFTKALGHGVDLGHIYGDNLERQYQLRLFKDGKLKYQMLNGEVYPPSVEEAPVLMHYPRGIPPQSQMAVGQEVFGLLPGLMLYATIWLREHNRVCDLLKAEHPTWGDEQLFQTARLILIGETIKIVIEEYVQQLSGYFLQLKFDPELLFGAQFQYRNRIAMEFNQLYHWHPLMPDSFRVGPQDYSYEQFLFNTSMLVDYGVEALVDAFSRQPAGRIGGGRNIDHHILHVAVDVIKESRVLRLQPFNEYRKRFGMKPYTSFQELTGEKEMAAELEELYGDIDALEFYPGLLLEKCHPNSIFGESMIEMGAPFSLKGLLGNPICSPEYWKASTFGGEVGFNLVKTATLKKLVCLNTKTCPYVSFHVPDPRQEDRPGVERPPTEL", "test": "Fluorometric COX-1 inhibitor screening kit", "type": "biochemical", "set-up": "purchased Abcam ab204698", "details": "mean ± standard error, three independent measurements", "description": "The inhibitory activity of the tested compounds against COX-1 and COX-2 isoforms was assessed using fluorometric cyclooxygenase inhibitor screening kits (Catalog Numbers ab204698 and ab283401, respectively; Abcam, Cambridge, UK). These assays detect the formation of prostaglandin G2, a product of COX enzymatic activity, via fluorometric measurement.\nStock solutions of the test compounds were prepared at a concentration of 5 mM in DMSO and subsequently diluted with the same solvent to obtain the test solutions. For the assay preparation, 2 μL of each test solution was diluted with 8 μL of COX assay buffer. The solvent control (SC) consisted of 2 μL of DMSO and 8 μL of assay buffer, while the enzyme control (EC) contained 10 μL of assay buffer alone. Sample wells (S) received 10 μL of the diluted test solutions. All other steps were in accordance with the manufacturer’s protocol and the previously published article. […] The percentage of inhibition was calculated as follows:(3) % Relative Inhibition=Slope of EC−Slope of S/Slope of EC×100\nFluorescence measurements were conducted on a BioTek Synergy LX multi-mode reader (Winooski, VT, USA)."}, "COX-1 and COX-2": {"test_system": "COX-1 and COX-2", "details": "cited from earlier work"}}}
{"smiles": "C[C@H](C(=O)O)c1cccc(C(=O)c2ccccc2)c1", "note": "[Dexketoprofen, reference compound]", "values": [{"measurement": "Systemic CAT activity compared to Sol (untreated) rats", "setting": "[1]; erythrocyte lysate", "value": "significantly reduced activity of SOD and CAT, as well as the GSH level, in untreated rats compared to Dex"}, {"measurement": "Systemic GSH level compared to untreated rats", "setting": "[1]; erythrocyte lysate", "value": "significantly reduced activity of SOD and CAT, as well as the GSH level, in untreated rats compared to Dex"}, {"measurement": "Systemic SOD activity compared to Sol (untreated) rats", "setting": "[1]; erythrocyte lysate", "value": "significantly reduced activity of SOD and CAT, as well as the GSH level, in untreated rats compared to Dex"}, {"measurement": "Systemic H2O2 level compared to solvent rats", "setting": "[1]; plasma", "value": "significantly lower"}, {"measurement": "Systemic O2∙− level compared to untreated (Sol) rats", "setting": "[1]; plasma", "value": "significantly lower"}, {"measurement": "Systemic TBARS level compared to Sol (untreated) rats", "setting": "[1]; plasma", "value": "significantly decreased"}, {"measurement": "Local O2∙− concentration compared to untreated rats", "setting": "[2]", "value": "significantly decreased"}, {"measurement": "Local SOD activity compared to untreated (negative control) rats", "setting": "[2]", "value": "remarkably improved"}, {"measurement": "Local nitrites level (reduction, p < 0.05)", "setting": "[2]; comparator not given", "value": "markedly reduced"}, {"measurement": "IC50", "setting": "COX-1", "value": "1.5 ± 0.6", "unit": "nM"}]}
{"smiles": "C[C@@H](C(=O)O)c1cccc(C(=O)c2ccccc2)c1", "note": "[(R)-ketoprofen]", "values": [{"measurement": "Times lower COX inhibitory capacity than dexketoprofen", "setting": "COX-1 and COX-2", "value": "100 to 1000", "unit": "times"}]}
